Assay results from patent US11608332B2, “FGFR4 inhibitor and preparation method and use thereof” (Jiangsu Hansoh Pharmaceutical Group Co., Ltd., priority 2016, dated 2023).

Legend:
FGFR4 kinase = FGFR4 kinase (Homo sapiens (Human), UniProt P22455); assay: Enzymologic experiment of FGFR4 (TR-FRET); assay type: biochemical; settings: TR-FRET kinase activity
Experimental: 1. Enzymologic Experiment of FGFR4
In this experiment, the inhibitory effect of the compounds on FGFR4 kinase activity was tested by a fluorescence resonance energy transfer (TR-FRET) method, and the half maximal inhibitory concentration (IC50) of the compounds on the FGFR4 kinase activity was determined.
2) 1˜5 μL of diluted solution in gradient of the compound were added.
(§1) 4) The mixture was incubated for 0.5-3 hours at room temperature.
(§2) 5) 10 μL of EDTA and a test solution comprising labeled antibody were added, and the plate was incubated for 1 hour at room temperature.
(§3) 6) The fluorescence signal values of each plate were determined by a microplate reader at 665 nm.
(§4) 7) The inhibition rates were calculated according to the fluorescence signal values.

FGFR1 kinase = FGFR1 kinase (Homo sapiens (Human), UniProt P11362); assay: Enzymologic experiment of FGFR1 (TR-FRET); assay type: biochemical; settings: TR-FRET kinase activity
Experimental: 2. Enzymologic Experiment of FGFR1
In this experiment, the inhibitory effect of the compounds on FGFR1 kinase activity was tested by a fluorescence resonance energy transfer (TR-FRET) method, and the half maximal inhibitory concentration (IC50) of the compounds on the FGFR1 kinase activity was determined.
1) 1˜5 μL of FGFR1 enzymatic solution was added to a 384-well plate, and the final concentration of the enzyme was 0.1˜5 nM.
2) 1˜5 μL of diluted solution in gradient of the compound was added.
3) 1˜5 μL of a substrate mixture containing substrate polypeptide with a final concentration of 5˜50 nM and ATP with a final concentration of 10˜200 μM was added.
as §1, §2, §3, §4
The IC50 of the compound was obtained by curve fitting according to the inhibition rates at different concentrations, and the enzymatic activity of the specific example compounds is shown in Table 1.

HuH-7 cells = assay: Inhibition of HuH-7 cell proliferation (CellTiter-Glo); assay type: cell-based; settings: Homo sapiens, 72 hours
Experimental: 4. Experiment on the Inhibition of HuH-7 Cell Proliferation
In this experiment, the inhibitory effect of the compounds on HuH-7 cell proliferation was tested by a CellTiter-Glo method, and the half maximal inhibitory concentration (IC50) of the compounds on the activity of cell proliferation was determined.
1) A 96-well cell culture plate was seeded with 50˜100 μL of HuH-7 cell suspension at a density of 1-5×10^4 cells/ml. The culture plate was incubated in an incubator for 16˜24 hours (37° C., 5% CO2).
(§5) 2) Different concentrations of the test compound in a gradient dilution were added to the cells in the culture plate. The culture plate was incubated in an incubator for 72 hours (37° C., 5% CO2).
(§6) 3) 50˜100 μL of CellTiter-Glo reagent were added to each well. Then, the culture plate was shaken or left to stand for 5˜30 minutes at room temperature.
(§7) 4) The chemiluminescence signal values of each plate were determined by a microplate reader.
(§8) 5) The inhibition rates were calculated according to the chemiluminescence signal values.
6) The IC50 of the compound was obtained by curve fitting according to the inhibition rates at different concentrations, and the cell activity of the specific Example compounds is shown in Table 2.

Hep 3B cells = assay: Inhibition of Hep 3B cell proliferation (CellTiter-Glo); assay type: cell-based; settings: Homo sapiens, Hep3B, 72 hours
Experimental: 3. Experiment on the Inhibition of Hep 3B Cell Proliferation
In this experiment, the inhibitory effect of the compounds on Hep 3B cell proliferation was tested by a CellTiter-Glo method, and the half maximal inhibitory concentration (IC50) of the compounds on the activity of cell proliferation was determined.
1) A 96-well cell culture plate was seeded with 50˜100 μL of Hep 3B cell suspension at a density of 1-5×10^4 cells/ml. The culture plate was incubated in an incubator for 16-24 hours (37° C., 5% CO2).
as §5
3) 50-100 μL of CellTiter-Glo reagent were added to each well. Then, the culture plate was shaken or left to stand for 5˜30 minutes at room temperature.
as §7, §8
6) The IC50 of the compound was obtained by curve fitting according to the inhibition rates at different concentrations, and the cell activity of the specific example compounds is shown in Table 2.

SK-HEP-1 cells = assay: Inhibition of SK-HEP-1 cell proliferation (CellTiter-Glo); assay type: cell-based; settings: Homo sapiens, SK-HEP1, 72 hours
Experimental: 5. Experiment on the Inhibition of SK-HEP-1 Cell Proliferation
In this experiment, the inhibitory effect of the compounds on SK-HEP-1 cell proliferation was tested by a CellTiter-Glo method, and the half maximal inhibitory concentration (IC50) of the compounds on the activity of cell proliferation was determined.
1) A 96-well cell culture plate was seeded with 50˜100 μL of SK-HEP-1 cell suspension at a density of 1-5×10^4 cells/ml. The culture plate was incubated in an incubator for 16˜24 hours (37° C., 5% CO2).
as §5, §6, §7, §8
The IC50 of the compound was obtained by curve fitting according to the inhibition rates at different concentrations, and the cell activity of the specific Example compounds is shown in Table 2.

[1] = Pharmacokinetic (PK) analysis in rats; assay type: in vivo, Sprague Dawley (SD) rats; settings: SD rats, single intragastric administration, 5 mg/kg, plasma; for AUC(0-t) / AUC(0-inf) / half-life / MRT / Cmax: Sprague-Dawley, rat, po; for AUC(0-t): read-out: Area Under Curve AUC0-t; for AUC(0-inf): read-out: Area Under Curve AUC0-∞; for half-life: read-out: Half-Time t1/2 (converted); for MRT: read-out: Mean Residence Time MRT; for Cmax: read-out: Plasma Concentration Cmax
Experimental: 6. Pharmacokinetic (PK) Analysis in Rats
Mode of administration: a single intragastric administration.
Formulation: 0.5% CMC and 1% Tween 80, ultrasonic dissolution.
Sampling points: 0.5, 1, 2, 4, 6, 8 and 24 hours after administration.
1. 1.0 ml of intravenous blood was collected and placed in a K2EDTA test tube.
The blood was centrifuged at room temperature at the speed of 1000˜3000×g for 5˜20 minutes to isolate the plasma, which was then stored at −80° C. 2. 160 μL of acetonitrile were added to 40 μL of plasma sample for precipitation, and then the mixture was centrifuged at the speed of 500˜2000×g for 5˜20 minutes. 3. 100 μL of treated solution were taken, and the concentration of the test compound was analyzed by LC/MS/MS. The LC/MS/MS analytical instrument was AB Sciex API 4000.
Liquid Chromatography Analysis:
Condition of Liquid chromatography: Shimadzu LC-20AD pump
Chromatographic column: phenomenex Gemiu 5 um C18 50×4.6 mm
Mobile phase: Solution A is 0.1% aqueous formic acid solution, and solution B is acetonitrile
Elution time: 0-3.5 minutes, the eluent was as follows:
Mass spectrometry analysis:
Mass spectrometer setup conditions: positive ion electrospray ionization (ESI) mode.

Sequence of FGFR4 kinase (P22455 22-802): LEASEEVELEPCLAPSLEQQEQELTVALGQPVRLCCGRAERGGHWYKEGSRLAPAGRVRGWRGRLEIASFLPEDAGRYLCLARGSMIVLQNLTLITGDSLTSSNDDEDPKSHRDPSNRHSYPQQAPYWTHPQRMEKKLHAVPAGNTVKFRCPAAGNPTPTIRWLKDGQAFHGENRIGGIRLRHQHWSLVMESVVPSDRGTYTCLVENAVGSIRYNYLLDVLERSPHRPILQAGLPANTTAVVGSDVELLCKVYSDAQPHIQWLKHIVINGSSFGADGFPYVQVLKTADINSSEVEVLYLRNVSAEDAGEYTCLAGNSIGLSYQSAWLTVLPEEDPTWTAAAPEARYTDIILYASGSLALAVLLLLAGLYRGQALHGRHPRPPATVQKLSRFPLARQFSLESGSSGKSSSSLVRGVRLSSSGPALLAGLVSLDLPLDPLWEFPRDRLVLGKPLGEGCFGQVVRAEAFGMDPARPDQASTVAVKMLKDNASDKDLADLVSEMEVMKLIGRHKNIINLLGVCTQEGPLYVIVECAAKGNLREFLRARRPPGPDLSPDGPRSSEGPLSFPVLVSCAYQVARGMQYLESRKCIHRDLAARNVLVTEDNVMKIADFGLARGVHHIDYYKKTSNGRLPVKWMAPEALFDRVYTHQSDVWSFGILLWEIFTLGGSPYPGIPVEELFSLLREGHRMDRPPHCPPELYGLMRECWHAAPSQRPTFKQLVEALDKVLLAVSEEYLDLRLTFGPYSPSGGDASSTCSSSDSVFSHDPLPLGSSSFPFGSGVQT
Sequence of FGFR1 kinase (P11362 22-822): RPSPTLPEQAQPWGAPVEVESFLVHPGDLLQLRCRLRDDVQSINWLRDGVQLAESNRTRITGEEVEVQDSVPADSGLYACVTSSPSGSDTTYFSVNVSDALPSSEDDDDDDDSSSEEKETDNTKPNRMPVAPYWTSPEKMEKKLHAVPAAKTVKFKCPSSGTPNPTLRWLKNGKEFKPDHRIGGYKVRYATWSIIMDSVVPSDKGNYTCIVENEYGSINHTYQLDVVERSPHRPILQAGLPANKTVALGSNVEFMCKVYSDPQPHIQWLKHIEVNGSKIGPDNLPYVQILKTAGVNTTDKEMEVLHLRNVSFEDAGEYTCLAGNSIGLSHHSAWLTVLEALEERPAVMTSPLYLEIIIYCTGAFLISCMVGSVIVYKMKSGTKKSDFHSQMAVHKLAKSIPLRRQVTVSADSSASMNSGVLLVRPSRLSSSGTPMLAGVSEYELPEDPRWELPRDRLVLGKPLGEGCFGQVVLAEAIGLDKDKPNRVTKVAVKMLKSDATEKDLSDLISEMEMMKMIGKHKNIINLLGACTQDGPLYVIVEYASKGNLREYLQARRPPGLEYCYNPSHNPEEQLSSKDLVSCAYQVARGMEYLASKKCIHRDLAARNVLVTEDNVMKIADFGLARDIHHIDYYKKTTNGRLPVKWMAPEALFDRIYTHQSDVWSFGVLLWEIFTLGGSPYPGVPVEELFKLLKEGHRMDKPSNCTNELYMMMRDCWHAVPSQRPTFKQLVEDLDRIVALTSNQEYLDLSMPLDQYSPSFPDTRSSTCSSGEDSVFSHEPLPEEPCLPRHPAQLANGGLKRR

Row | SMILES | IC50 (FGFR4 kinase) | IC50 (FGFR1 kinase) | IC50 (HuH-7 cells) | IC50 (Hep 3B cells) | IC50 (SK-HEP-1 cells) | Peak Time tmax [1] | AUC(0-t) [1] | AUC(0-inf) [1] | half-life [1] | MRT [1] | Cmax [1]
1 | CO[C@@H]1CCN(c2cc(NC(=O)N3CCCc4cc(CN(C)C(=O)[C@H]5CCCO5)c(C=O)nc43)ncc2C#N)C1 [Example 18, N-(5-Cyano-4-((R)-3-methoxypyrrolidin-1-yl)pyridin-2-yl)-7-formyl-6-(((R)—N-methyltetrahydrofuran-2-carboxamido)methyl)-3,4-dihydro-1,8-naphthyridin-1(2H)-carboxamide] | 4.2 nM | > 10000 nM |  |  |  |  |  |  |  |  | 
2 | CCN1CCC[C@@H]1C(=O)N(C)Cc1cc2c(nc1C=O)N(C(=O)Nc1cc(NCCOC)c(C#N)cn1)CCC2 [Example 97, (R)—N-(5-Cyano-4-((2-methoxyethyl)amino)pyridin-2-yl)-6-((1-ethyl-N-methylpyrrolidin-2-carboxamido)methyl)-7-formyl-3,4-dihydro-1,8-naphthyridin-1(2H)-carboxamide] | 1.47 nM | > 10000 nM | 43.7 nM | 9.8 nM | > 10000 nM |  |  |  |  |  | 
3 | COCCNc1cc(NC(=O)N2CCCc3cc(CN(C)C(=O)[C@H]4CCCN4C(C)=O)c(C=O)nc32)ncc1C#N [Example 10, (R)-6-((1-Acetyl-N-methylpyrrolidin-2-carboxamido)methyl)-N-(5-cyano-4-((2-methoxyethyl)amino)pyridin-2-yl)-7-formyl-3,4-dihydro-1,8-naphthyridin-1(2H)-carboxamide] | 1.88 nM | > 10000 nM |  |  |  | 2 h | 5.26 µg·h/mL | 5.34 µg·h/mL | 1 h | 2.8 h | 1.96 µg/mL
4 | COCCNc1cc(NC(=O)N2CCCc3cc(CN4CC[C@H](OC)C4=O)c(C=O)nc32)ncc1C#N [Example 46, (S)—N-(5-Cyano-4-((2-methoxyethyl)amino)pyridin-2-yl)-7-formyl-6-((3-methoxy-2-carbonylpyrrolidin-1-yl)methyl)-3,4-dihydro-1,8-naphthyridin-1(2H)-carboxamide] |  | > 10000 nM | 9 nM | 2.3 nM | > 10000 nM | 2 h | 10.7 µg·h/mL | 11.3 µg·h/mL | 1 h |  | 3.29 µg/mL
5 | CN(Cc1cc2c(nc1C=O)N(C(=O)Nc1cc(N(C)C)c(C#N)cn1)CCC2)C(=O)C1CCCO1 (stereo not shown) [Example 4, N-(5-Cyano-4-(dimethylamino)pyridin-2-yl)-7-formyl-6-((N-methyltetrahydrofuran-2-carboxamido)methyl)-3,4-dihydro-1,8-naphthyridin-1(2H)-carboxamide] | 4.54 nM | > 10000 nM |  |  |  |  |  |  |  |  | 
6 | COCC(=O)N(C)Cc1cc2c(nc1C=O)N(C(=O)Nc1cc(N3CC[C@@H](OC)C3)c(C#N)cn1)CCC2 [Example 107, (R)—N-(5-Cyano-4-(3-methoxypyrrolidin-1-yl)pyridin-2-yl)-7-formyl-6-((2-methoxy-N-methylacetamido)methyl)-3,4-dihydro-1,8-naphthyridin-1(2H)-carboxamide] |  | > 10000 nM | 7.3 nM | 1.6 nM | > 10000 nM | 4 h | 2.63 µg·h/mL | 2.67 µg·h/mL | 1 h | 2.8 h | 1.95 µg/mL
7 | CN(Cc1cc2c(nc1C=O)N(C(=O)Nc1cc(N[C@H]3CCOC3)c(C#N)cn1)CCC2)C(=O)[C@H]1CCCO1 [Example 94, N-(5-Cyano-4-(((S)-tetrahydrofuran-3-yl)amino)pyridin-2-yl)-7-formyl-6-(((R)—N-methyltetrahydrofuran-2-carboxamido)methyl)-3,4-dihydro-1,8-naphthyridin-1 (2H)-carboxamide] |  | > 10000 nM | 13.8 nM | 3.9 nM | > 10000 nM | 2 h | 13 µg·h/mL | 12.4 µg·h/mL | 0.8 h | 2.8 h | 3.75 µg/mL
8 | COCCNc1cc(NC(=O)N2CCCc3cc(CN(C)C(=O)C4COC4)c(C=O)nc32)ncc1C#N [Example 3, N-(5-Cyano-4-((2-methoxyethyl)amino)pyridin-2-yl)-7-formyl-6-((N-methyloxetane-3-carboxamido)methyl)-3,4-dihydro-1,8-naphthyridin-1(2H)-carboxamide] |  | > 10000 nM | 38.8 nM | 5.4 nM | > 10000 nM | 2 h | 6.35 µg·h/mL | 6.66 µg·h/mL | 1.6 h | 3.3 h | 2.23 µg/mL
9 | COC[C@@H](C)Nc1cc(NC(=O)N2CCCc3cc(CN(C)C(=O)[C@H]4CCCO4)c(C=O)nc32)ncc1C#N [Example 93, N-(5-Cyano-4-(((R)-1-methoxypropan-2-yl)amino)pyridin-2-yl)-7-formyl-6-(((R)—N-methyltetrahydrofuran-2-carboxamido)methyl)-3,4-dihydro-1,8-naphthyridin-1(2H)-carboxamide] |  | > 10000 nM | 5 nM | 3.7 nM | > 10000 nM | 2 h | 9.42 µg·h/mL | 9.48 µg·h/mL | 0.9 h | 2.5 h | 2.86 µg/mL
10 | CO[C@@H]1CCN(c2cc(NC(=O)N3CCCc4cc(CN5CC[C@H](OC)C5=O)c(C=O)nc43)ncc2C#N)C1 [Example 54, N-(5-Cyano-4-((R)-3-methoxypyrrolidin-1-yl)pyridin-2-yl)-7-formyl-6-(((S)-3-methoxy-2-carbonylpyrrolidin-1-yl)methyl)-3,4-dihydro-1,8-naphthyridin-1(2H)-carboxamide] |  | > 10000 nM | 11.3 nM | 4.4 nM | > 10000 nM | 2 h | 7.13 µg·h/mL | 7.87 µg·h/mL | 1 h | 2.7 h | 2.87 µg/mL
